# Source: patent US9815850B2, “Compounds, compositions and methods” (Denali Therapeutics Inc., priority 2016, dated 2017)
# How the values were obtained:
# [1] = test system: human cryopreserved hepatocytes; experiment: Metabolic stability (hepatocytes); type: in vitro ADME; conditions: well-stirred model
# From the text: Hepatic clearance is expressed as mL/min/kg.
# [2] = molecular target: P-gp (P-glycoprotein, MDR1) (Homo sapiens (Human), UniProt P08183); experiment: MDCKII-MDR1 permeability, efflux ratio; type: in vitro ADME; conditions: dog, MDCK-MDR1, pH 7.4, MDCKII-MDR1 cells, read-out: ER MDR1
# Sequence of P-gp (P-glycoprotein, MDR1) (P08183 whole entry): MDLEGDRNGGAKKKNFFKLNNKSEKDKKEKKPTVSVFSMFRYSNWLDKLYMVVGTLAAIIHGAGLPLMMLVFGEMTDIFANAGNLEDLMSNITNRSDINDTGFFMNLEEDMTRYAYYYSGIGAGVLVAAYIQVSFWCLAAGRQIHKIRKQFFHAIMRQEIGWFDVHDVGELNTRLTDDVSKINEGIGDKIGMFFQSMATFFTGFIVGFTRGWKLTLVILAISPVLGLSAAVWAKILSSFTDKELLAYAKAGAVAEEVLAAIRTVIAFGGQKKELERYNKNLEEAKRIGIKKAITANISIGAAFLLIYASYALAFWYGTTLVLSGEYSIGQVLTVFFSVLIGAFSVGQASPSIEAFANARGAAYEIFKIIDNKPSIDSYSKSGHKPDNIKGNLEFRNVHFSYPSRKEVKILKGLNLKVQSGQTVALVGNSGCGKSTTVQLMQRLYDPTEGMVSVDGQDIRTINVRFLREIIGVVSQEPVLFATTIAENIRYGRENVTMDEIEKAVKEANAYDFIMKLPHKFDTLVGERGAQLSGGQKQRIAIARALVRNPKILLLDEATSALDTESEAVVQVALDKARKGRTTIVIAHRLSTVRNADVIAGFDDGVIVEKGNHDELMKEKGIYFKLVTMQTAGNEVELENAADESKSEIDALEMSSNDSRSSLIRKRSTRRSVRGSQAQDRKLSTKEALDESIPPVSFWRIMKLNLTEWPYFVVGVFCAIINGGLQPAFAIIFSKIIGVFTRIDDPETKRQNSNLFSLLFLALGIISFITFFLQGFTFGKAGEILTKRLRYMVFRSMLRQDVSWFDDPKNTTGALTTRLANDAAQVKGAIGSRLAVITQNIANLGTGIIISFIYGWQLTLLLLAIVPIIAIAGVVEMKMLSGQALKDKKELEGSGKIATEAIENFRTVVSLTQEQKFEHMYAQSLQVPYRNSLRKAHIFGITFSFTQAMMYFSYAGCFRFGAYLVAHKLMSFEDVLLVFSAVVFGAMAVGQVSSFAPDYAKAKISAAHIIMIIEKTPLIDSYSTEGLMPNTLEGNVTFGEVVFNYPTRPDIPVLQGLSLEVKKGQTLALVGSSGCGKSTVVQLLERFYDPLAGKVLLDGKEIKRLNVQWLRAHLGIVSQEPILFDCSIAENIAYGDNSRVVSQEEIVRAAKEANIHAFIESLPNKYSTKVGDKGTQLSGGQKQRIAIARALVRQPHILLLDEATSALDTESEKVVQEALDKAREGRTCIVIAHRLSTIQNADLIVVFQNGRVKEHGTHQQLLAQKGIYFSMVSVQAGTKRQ
# Experimental: The blood brain barrier (BBB) separates circulating blood from the extracellular fluid of the central nervous system (CNS). The passive membrane permeability (Papp) and the P-gp (P-glycoprotein) substrate efflux potential were determined using the MDCKII-MDR1 cell line as an in vitro model of the effective permeability of a compound through the BBB. A bidirectional assay (Apical to Basolateral (A→B) and Basolateral to Apical (B→A)), in the absence and in the presence of GF120918 (a P-gp inhibitor) was conducted using pre-plated MDCKII-MDR1 cells (Corning HTS Transwell-96) obtained from SOLVO Biotechnology. The assay was run at 3 μM for 90 min (minutes) in triplicate using a HBSS+12.5 mM HEPES pH 7.4 transport buffer. Following incubation of samples from donor and receiver, wells were removed and measured by LC-MS/MS. Samples were extracted by protein precipitation with acetonitrile containing an appropriate internal standard (IS) having a known mass and molecular weight. The precipitate was centrifuged for 10 min at 3000 rpm (revolutions per minute). The supernatants were then collected, diluted if necessary, and injected on to the LC-MS/MS system. […] Papp (apparent permeability expressed in nm/sec [nanometer/second]) values were calculated according to the following equation: […]
# Where dQ/dt is the permeability rate, C0 is the initial concentration in the donor solution (expressed as IS ratio), A and B are the surface areas of the filter (the surface area of the cell monolayer).
# Monolayer efflux ratios (ER) were derived using the following equation: […]
# [3] = male, Sprague-Dawley Crl:CD(SD), in vivo
# [4] = male, Beagle, in vivo
# [5] = male, cynomolgus monkey, in vivo
# [6] = test system: human cryopreserved hepatocytes; experiment: Metabolic stability (hepatocytes); type: in vitro ADME; conditions: from human CLhep
# TNF/zVAD = conditions: dose of 30 mg/kg, Table 2 of WO 2014/125444; cited from earlier work
# GST-hRIPK1 (8-327) = GST-hRIPK1 (8-327) (Homo sapiens (Human), UniProt Q13546); experiment: ADP-Glo kinase assay; type: biochemical; conditions: 50 μM ATP
# Sequence of GST-hRIPK1 (8-327) (Q13546 8-327): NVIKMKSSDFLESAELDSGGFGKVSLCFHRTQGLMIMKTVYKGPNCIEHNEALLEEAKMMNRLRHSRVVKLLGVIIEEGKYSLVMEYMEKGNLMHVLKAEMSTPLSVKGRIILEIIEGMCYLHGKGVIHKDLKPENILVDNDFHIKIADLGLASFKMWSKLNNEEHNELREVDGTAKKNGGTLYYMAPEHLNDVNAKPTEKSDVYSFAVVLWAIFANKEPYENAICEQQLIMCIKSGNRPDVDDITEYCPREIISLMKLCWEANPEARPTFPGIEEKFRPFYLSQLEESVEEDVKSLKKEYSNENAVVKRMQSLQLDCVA
# Experimental: GST-hRIPK1 (8-327) enzyme was generated by Proteros GmbH by Baculovirus expression system.
# Test compounds were diluted in DMSO and 0.1 μL of solution was dispensed to each well of a 384-well white solid microplate. The assay buffer was 50 mM HEPES pH 7.5, 50 mM NaCl, 30 mM MgCl2. The buffer was supplemented with 0.02% CHAPS, 0.01% of Pluronic F127, 0.1 mg/mL BSA and 1 mM DTT. MnCl2, 5 mM, was included in the assay buffer on the day of the experiment. The enzymatic reaction comprised 1.5 μg/mL GST-hRIPK1 (8-327) and 50 μM ATP for receptor interacting protein kinase 1 […]. 5 μL of enzyme and 5 μL of ATP were added to the plate at twice the final assay concentration and incubated at room temperature for 3 hours. Following this reaction, 10 μL of ADP-Glo reagent (Promega) was added to each well and incubated for 40 min at room temperature. This stops the kinase reaction and depletes any remaining ATP. […] The luminescence is then measured with the Envision (PerkinElmer) plate reader. Test compound inhibition was expressed as percent inhibition of internal assay controls. For concentration response curves, normalized data is fit and IC50 determined using XL-fit (IDBS) for Excel. […]
# Test compound inhibition was expressed as percent inhibition of internal assay controls. For concentration response curves, normalized data is fit and IC50 determined using XL-fit (IDBS) for Excel. […]
Human hepatocyte CLhep Avg [1] [L/h/kg],"efflux ratio at 90 min, 3 μM [2]",Rat unbound CL [3] [L/h/kg],Dog unbound CL [4] [L/h/kg],Cyno unbound CL [5] [L/h/kg],clearance as % of liver blood flow [6],Structure (SMILES),inhibition of temperature loss (TNF/zVAD) [%],IC50 (GST-hRIPK1 (8-327)) [µM]
0.408,6.4,4.62,14.4,7.02,approximately 32%,"CN1C(=O)[C@@H](NC(=O)c2nnc(Cc3ccccc3)[nH]2)COc2ccccc21 [A, reference compound]",93,–
–,–,–,–,–,–,"O=C(N[C@H]1COC[C@H]2CCCN2C1=O)c1nnc(Cc2ccccc2)[nH]1 [Example 65, N-[(4S,9aR)-5-oxo-octahydropyrrolo[2,1-c][1,4]oxazepin-4-yl]-5-benzyl-4H-1,2,4-triazole-3-carboxamide]",–,> 10
